Test results: paper PMC3019604 (ACS medicinal chemistry letters, 2010)

Test system: BJ, HEK293, HEP G2, and Raji cell lines
Test: Cytotoxicity
Format: cell-based, human
Settings: four mammalian cell lines (BJ, HEK293, HEP G2, Raji)

Cc1cc(NC(=O)Nc2cccc(OC(F)(F)F)c2)c2ccccc2n1 [4{13, 34}]
mammalian cytotoxicity (in words): weak
